The values that follow come from patent publication US3951979A, “New amino propanediol derivatives” (priority 1972, dated 1976).

SMILES strings stand for the structures.

One data set concerns coughing spasms. As to the kind of experiment: Antitussive effect: inhibition of coughing spasms induced by stimulating a laryngeal nerve. The data set is classed as in vivo, cat. As to conditions: for Activity of the product (antitussive) / Duration of activity (antitussive): cat; for Dose of pentoxyverine necessary for comparable antitussive effect, relative to compound: versus pentoxyverine. The source says:
Finally, the compounds of the invention having shown themselves to be powerful antitussive agents, the results of comparative tests for this activity on four compounds of the invention and on pentoxyverine, one of the most powerful antitussive agents at present known, are given below in Table V.
The technique used was the method of R. Domenjoz, Arch. Exp. Pathol. V. Pharmacol. Volume 215, page 19 (1952)
The cat is anaesthetized with ether and tracheotomised.
Coughing spasms are induced by stimulating a laryngeal nerve. After the product to be tested has been administered, fresh stimulation enables the inhibition achieved and its duration to be assessed.

Data set [1] has as its system apomorphine-induced vomiting. As to the kind of experiment: Anti-emetic effect: apomorphine-induced attempted vomits in beagle dogs. The format is in vivo. The conditions noted are these: dog. As for the experimental part: The anti-emetic effect, which may constitute a contributory factor to the main effect, was also systematically tested in accordance with the following procedure:
Dogs of the beagle breed were split up at random into groups of 3 animals. After fasting for 24 hours, the animals were given an empty capsule then, one hour later, received a sub-cutaneous injection of apomorphine hydrochloride (0.3 mg/kg). The number of attempted vomits during 45 minutes was then counted.
After 15 days rest, the same animals were given a capsule identical to that given on the first occasion but containing the product to be tested. The injection of apomorphine was carried out under the same conditions as for the control experiment.

In data set [2] the test system is carotid arterial blood-pressure. The experiment in a line: Effect on carotid arterial blood-pressure of the dog anaesthetised with chloralose. The data set is classed as in vivo. As for the experimental part:
EFFECT ON ARTERIAL BLOOD-PRESSURE This was measured on the dog anaesthetised with chloralose by recording both the extent of, and the duration of, the effect on carotid arterial blood-pressure.

Data set [3] is described as follows: Acute toxicity, LD50, oral administration. The conditions noted are these: in vivo, mouse. As for the experimental part:
1. Acute toxicity -- LD50 -- Oral administration
This was determined upon the mouse by oral administration, the LD50 value being calculated by the method of B. Behrens & C. Karber (Arch F. Exp. Patho. Pharm., volume 177, page 379 (1935) )

The next data set has as its system apomorphine. As to the kind of experiment: Anti-apomorphic effect in the rat. As to conditions: for Anti-apomorphine: apomorphine 0.6 mg/kg. Set-up: Anti-apomorphine: unit not given here. The data set is classed as in vivo.
The next data set deals with central nervous system. As to the kind of experiment: Effect on the central nervous system, overall psycholeptic/neuroleptic spectrum. As to conditions: in vivo. The text has this: EFFECT ON THE CENTRAL NERVOUS SYSTEM
This effect was observed by means of a set of tests of which the most significant are summarised below: […]

A further data set relates to cerebral dopamine. As to the kind of experiment: Biochemical dopamine effect on the brain (spectrofluorometric). The format is in vivo, mouse (strain OF1). The conditions noted are these: mouse; for Cerebral dopamine: I.P. As for the experimental part:
7. Biochemical dopamine effect on the brain This effect is measured by spectrofluorometric means using the Jobin-Yvon Bearn apparatus, on the brains of mice of the strain OF1.

Another data set deals with rat. As to the kind of experiment: Cataleptic effect, homolateral crossed paws method. The data set is classed as in vivo. Set-up: Catalepsy: unit not given here.
For data set [4], the system named is mebubarbital-induced sleep. As to the kind of experiment: Potentiation of an inactive dose of a barbiturate (mebubarbital). The format is in vivo. The conditions noted are these: 0.25 h; oral administration; sleep in 50% of animals 15 minutes after product; read-out: Barbiturates (potentiation), ED50.
Setting [5] is: Canis lupus familiaris, 1.25 mg/kg intravenous.

Consider `CCN(CC)CCOCCOC(=O)C1(c2ccccc2)CCCC1` [Pentoxyverine, pentoxyverine, reference compound], for which, in the data set on coughing spasms (10 mg/kg body weight), the “Activity of the product (antitussive)” value is recorded as 45% and the “Duration of activity (antitussive)” value amounted to 30 min. In addition, in the data set with coughing spasms (50 mg/kg body weight), the “Activity of the product (antitussive)” value turned out to be 71% and the “Duration of activity (antitussive)” value was 110 min.
On to `CCN(CC)CCNC(=O)c1cc(Cl)c(N)cc1OC` [Metoclopramide, metoclopramide, reference compound], for which the “Reduction in attempted vomits” value in data set [1] (1 mg/kg subcutaneous) and in data set [1] (1.5 mg/kg oral) was 100% each time.
Regarding `C#CC(C)(CC)OCC(O)CN1CCN(CC(OCC)c2ccccc2)CC1` (stereo not shown) [Compound No. 25, 1-3-(1-methyl-1-ethynyl)propoxy-2-hydroxy propyl-4-(2-ethoxy-2-phenyl)ethylpiperazine], the “Activity of the product (antitussive)” value is on record as 41% in the data set on coughing spasms (5 mg/kg body weight), 49% in the data set on coughing spasms (7.5 mg/kg body weight) and 71% in the data set with coughing spasms (10 mg/kg body weight). The “Duration of activity (antitussive)” value in the data set with coughing spasms (5 mg/kg body weight) was above 35 min; with coughing spasms (7.5 mg/kg body weight), 62 min; in the data set on coughing spasms (10 mg/kg body weight), 80 min. The “Dose of pentoxyverine necessary for comparable antitussive effect, relative to compound” value in the data set on coughing spasms is “five times greater”.
For the compound `C#CC1(OCC(O)CN2CCN(CC(OCC)c3ccccc3)CC2)CCCCC1` (stereo not shown) [compound 22], in the data set with coughing spasms (10 mg/kg body weight), the “Activity of the product (antitussive)” value is recorded as 75% and the “Duration of activity (antitussive)” value came out at 50 min. Moreover, the “Dose of pentoxyverine necessary for comparable antitussive effect, relative to compound” value with coughing spasms was “five times greater”.
On to `C#CC1(OCC(O)CN2CCN(CC(OC)c3ccccc3)CC2)CCCCC1` (stereo not shown) [compound 21], for which, in the data set on coughing spasms (10 mg/kg body weight), the “Activity of the product (antitussive)” value is given as 54% and the “Duration of activity (antitussive)” value was found to be 20 min.
Regarding `C#CC(C)(C)OCC(O)CN1CCN(c2ccc(F)cc2)CC1` (stereo not shown) [compound 5], in [2] (1.25 mg/kg intravenous), the “Duration of activity (blood-pressure)” value is at least 35 min. Further, the change in vivo at 1.25 mg/kg in data set [2] (setting [5]) is -19.5%.
Taken in the same sequence, the figures for `C#CC(C)(C)OCC(O)CN1CCN(c2ccccc2)CC1` (stereo not shown) [Compound No. 1] were at least 35 min and -20.3%.
On to `C#CC1(OCC(O)CN2CCN(c3ccc(F)cc3)CC2)CCCCC1` (stereo not shown) [Compound No. 4, 1-3-(1-ethynyl)cyclohexyloxy-2-hydroxy propyl-4-(4-fluorophenyl)piperazine], for which the “Duration of activity (blood-pressure)” value in data set [2] (5 mg/kg intravenous) amounted to 20 min. Further, the change in vivo at 5 mg/kg in data set [2] (Canis lupus familiaris, 5 mg/kg intravenous) is -50%. In addition, the LD50 (as a rule, the dose expected to kill half of the subjects tested) in data set [3] came to 800 mg/kg. The compound also returned an Anti-apomorphine in the data set with apomorphine (O.A.) of 92. The “Neuroleptic/psycholeptic activity (in words)” value in the data set with central nervous system was “fairly full spectrum characteristic of neuroleptic activity”. The Cerebral dopamine in the data set with cerebral dopamine (at 10 mg/kg) was -50%. In the data set on cerebral dopamine (in vivo), the “Depletion of cerebral mono-amines (in words)” value is recorded as “depletion of cerebral mono-amines in a manner reminiscent of reserpine”. The Catalepsy in the data set with rat (I.P.) turned out to be 20. Further, the ED50 (in general, the dose that gives a 50% effect, or the effect in half of the subjects) in [4] came out at 20 mg/kg. Besides, the “Reduction in attempted vomits” value in data set [1] (1 mg/kg subcutaneous) came to 74%.
With `C#CC(C)(CC)OCC(O)CN1CCN(c2ccccc2OC)CC1` (stereo not shown) [compound 18], in data set [3], the LD50 is above 200 mg/kg. The “Activity in apomorphine stereotypes (in words)” value in the data set with apomorphine (in vivo) is “active in apomorphine stereotypes”. Moreover, the Anti-apomorphine in the data set on apomorphine (subcutaneous) is 10. Besides, in the data set on central nervous system, the “Sedative effect (in words)” value was “non-sedative”. Besides, the Cerebral dopamine in the data set with cerebral dopamine (at 20 mg/kg) is on record as -24%. Moreover, in the data set with rat (I.P., at 40), the “Catalepsy, result at stated dose” value is recorded as “Inactive”. Further, the “Cataleptic effect (in words)” value with rat (in vivo) is given as “non-inducive of catalepsy”. In addition, in [4], the ED50 is above 25 mg/kg.
